{"source": "patent US20200323225A1", "about": "“LIPASE INHIBITORS TO PREVENT RANCIDITY IN EXPRESSED HUMAN MILK DURING STORAGE” (STC.UNM, priority 2017, published 2020)", "key": {"LPL [1]": {"test_system": "LPL", "assay": "Lipase activity inhibition in raw milk samples after incubation with Orlistat", "type": "biochemical", "details": "raw milk samples (n=2); 10 μM Orlistat; incubated 1 h (FIG. 4)", "experimental": "FIG. 4 is a graph sowing lipase activity inhibition after incubation with Orlistat. […] LPL activity in milk spiked with 6 pmol LPL and increasing levels of Orlistat (an LPL inhibitor) was monitored over the course of 20 min (FIG. 3). […] Raw milk samples were also treated with this level of Orlistat (10 μM) (FIG. 4)."}, "LPL [2]": {"biological_target": "T1, LPL (Homo sapiens, UniProt P06858)", "T1 sequence (P06858 28-475)": "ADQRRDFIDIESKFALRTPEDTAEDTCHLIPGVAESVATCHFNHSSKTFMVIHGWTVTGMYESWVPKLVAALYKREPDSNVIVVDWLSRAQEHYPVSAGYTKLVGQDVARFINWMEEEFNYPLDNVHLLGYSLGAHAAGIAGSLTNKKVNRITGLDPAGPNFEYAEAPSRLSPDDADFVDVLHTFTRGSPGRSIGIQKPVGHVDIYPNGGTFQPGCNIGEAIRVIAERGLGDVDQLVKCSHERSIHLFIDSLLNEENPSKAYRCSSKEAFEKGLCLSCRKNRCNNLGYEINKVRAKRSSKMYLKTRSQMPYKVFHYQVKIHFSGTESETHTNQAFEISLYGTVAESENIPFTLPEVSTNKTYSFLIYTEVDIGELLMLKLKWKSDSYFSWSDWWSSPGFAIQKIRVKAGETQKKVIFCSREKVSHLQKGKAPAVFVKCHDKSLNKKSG", "assay": "LPL activity in milk spiked with 6 pmol LPL, with increasing levels of Orlistat", "type": "biochemical", "details": "10 μM Orlistat, monitored over 20 min (FIG. 3)", "experimental": "FIG. 3 is a graph showing measurement of LPL activity in milk spiked with 6 pmol LPL in the absence or presence of LPL inhibitor, Orlistat.\nLPL activity in milk spiked with 6 pmol LPL and increasing levels of Orlistat (an LPL inhibitor) was monitored over the course of 20 min (FIG. 3). […] Raw milk samples were also treated with this level of Orlistat (10 μM) (FIG. 4)."}}, "data": [{"smiles": "CCCCCCCCCCC[C@@H](C[C@@H]1OC(=O)[C@H]1CCCCCC)OC(=O)[C@H](CC(C)C)NC=O", "note": "[Orlistat]", "values": [{"measurement": "decrease in lipase activity (LPL)", "setting": "LPL [1]", "value": 22, "unit": "%"}, {"measurement": "reduction in LPL activity", "setting": "LPL [2]", "value": "most significant reduction in LPL"}]}]}
